According to ChEMBL document CHEMBL5678818, “Discovery of potent SOS1 inhibitors that block RAS activation via disruption of the RAS-SOS1 interaction” (Proc Natl Acad Sci U S A, 2019):

Assays:
[1] = target: Activin receptor type-1-like (Homo sapiens) (UniProt P37023); assay: Inhibition of ACVRL1 (unknown origin) assessed as residual activity at 100 nM by KINOMEscan analysis relative to control
[2] = target: Calcium/calmodulin-dependent protein kinase type 1G (Homo sapiens) (UniProt Q96NX5); assay: Inhibition of CAMK1G (unknown origin) assessed as residual activity at 100 nM by KINOMEscan analysis relative to control
Chain of Calcium/calmodulin-dependent protein kinase type 1G (Homo sapiens) (Q96NX5 whole entry): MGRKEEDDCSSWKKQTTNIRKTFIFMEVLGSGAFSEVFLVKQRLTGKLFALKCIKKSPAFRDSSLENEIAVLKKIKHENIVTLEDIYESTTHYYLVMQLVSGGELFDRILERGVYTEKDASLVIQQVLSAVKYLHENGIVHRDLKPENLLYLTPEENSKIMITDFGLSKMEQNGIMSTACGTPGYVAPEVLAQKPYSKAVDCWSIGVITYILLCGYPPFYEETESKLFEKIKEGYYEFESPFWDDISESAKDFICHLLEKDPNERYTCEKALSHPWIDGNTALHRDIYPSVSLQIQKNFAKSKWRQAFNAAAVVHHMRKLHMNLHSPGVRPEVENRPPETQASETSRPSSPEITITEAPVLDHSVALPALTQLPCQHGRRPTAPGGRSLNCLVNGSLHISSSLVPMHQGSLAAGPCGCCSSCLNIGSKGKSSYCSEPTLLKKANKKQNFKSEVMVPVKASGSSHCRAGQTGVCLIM

[3] = target: T1, Serine/threonine-protein kinase PknB (Mycobacterium tuberculosis) (UniProt P9WI81); assay: Inhibition of Mycobacterium tuberculosis PKNB assessed as residual activity at 100 nM by KINOMEscan analysis relative to control
T1 sequence (whole entry): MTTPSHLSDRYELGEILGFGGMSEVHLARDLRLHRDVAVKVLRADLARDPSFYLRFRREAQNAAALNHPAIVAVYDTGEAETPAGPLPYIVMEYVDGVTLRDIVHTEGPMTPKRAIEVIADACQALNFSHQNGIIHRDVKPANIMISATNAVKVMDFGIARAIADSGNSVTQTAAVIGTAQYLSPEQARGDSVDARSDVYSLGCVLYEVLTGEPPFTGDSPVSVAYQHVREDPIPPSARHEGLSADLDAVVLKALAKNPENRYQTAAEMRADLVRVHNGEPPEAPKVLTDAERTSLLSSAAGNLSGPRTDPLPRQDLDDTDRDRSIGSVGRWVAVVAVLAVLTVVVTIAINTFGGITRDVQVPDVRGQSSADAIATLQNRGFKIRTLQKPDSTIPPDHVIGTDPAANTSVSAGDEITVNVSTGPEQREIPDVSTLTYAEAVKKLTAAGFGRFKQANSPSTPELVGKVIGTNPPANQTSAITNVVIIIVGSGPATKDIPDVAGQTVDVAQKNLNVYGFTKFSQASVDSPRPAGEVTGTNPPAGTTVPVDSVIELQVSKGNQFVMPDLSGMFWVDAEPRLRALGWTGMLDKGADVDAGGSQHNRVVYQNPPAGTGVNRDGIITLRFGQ

[4] = target: Receptor-interacting serine/threonine-protein kinase 2 (Homo sapiens) (UniProt O43353); assay: Inhibition of RIPK2 (unknown origin) assessed as residual activity at 100 nM by KINOMEscan analysis relative to control
Chain of Receptor-interacting serine/threonine-protein kinase 2 (Homo sapiens) (O43353 whole entry): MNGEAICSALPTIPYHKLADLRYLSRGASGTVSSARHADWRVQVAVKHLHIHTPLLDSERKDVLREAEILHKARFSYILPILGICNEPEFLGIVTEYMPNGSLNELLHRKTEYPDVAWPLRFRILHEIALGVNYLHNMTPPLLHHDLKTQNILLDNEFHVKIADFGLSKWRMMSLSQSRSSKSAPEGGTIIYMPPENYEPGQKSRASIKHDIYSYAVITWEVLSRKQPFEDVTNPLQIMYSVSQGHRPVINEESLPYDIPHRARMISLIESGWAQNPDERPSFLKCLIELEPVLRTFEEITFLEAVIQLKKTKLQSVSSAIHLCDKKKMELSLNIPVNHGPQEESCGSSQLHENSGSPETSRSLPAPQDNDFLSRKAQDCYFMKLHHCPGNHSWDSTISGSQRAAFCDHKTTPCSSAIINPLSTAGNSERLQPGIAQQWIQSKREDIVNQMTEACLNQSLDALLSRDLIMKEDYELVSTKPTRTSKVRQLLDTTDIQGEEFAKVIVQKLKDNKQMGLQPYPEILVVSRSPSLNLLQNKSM

[5] = target: T2, Mitogen-activated protein kinase kinase kinase 7 (Homo sapiens) (UniProt O43318); assay: Inhibition of TAK1 (unknown origin) assessed as residual activity at 100 nM by KINOMEscan analysis relative to control
T2 sequence (whole entry): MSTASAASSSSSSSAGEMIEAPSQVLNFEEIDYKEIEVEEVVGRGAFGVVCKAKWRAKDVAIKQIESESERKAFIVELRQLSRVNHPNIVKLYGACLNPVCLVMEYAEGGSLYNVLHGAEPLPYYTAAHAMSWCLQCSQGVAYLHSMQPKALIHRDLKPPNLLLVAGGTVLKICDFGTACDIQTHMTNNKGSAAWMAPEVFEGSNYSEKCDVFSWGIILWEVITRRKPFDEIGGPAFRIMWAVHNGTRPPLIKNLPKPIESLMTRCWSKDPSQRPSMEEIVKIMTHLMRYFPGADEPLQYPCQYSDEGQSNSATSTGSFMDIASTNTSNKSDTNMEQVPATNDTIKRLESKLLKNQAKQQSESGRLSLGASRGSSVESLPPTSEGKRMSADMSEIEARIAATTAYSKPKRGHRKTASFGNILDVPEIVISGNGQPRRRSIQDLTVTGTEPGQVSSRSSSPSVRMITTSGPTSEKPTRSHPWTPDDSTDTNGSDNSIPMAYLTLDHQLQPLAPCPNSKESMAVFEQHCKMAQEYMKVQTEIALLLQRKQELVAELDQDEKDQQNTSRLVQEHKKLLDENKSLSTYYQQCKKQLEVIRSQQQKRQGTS

[6] = target: Activin receptor type-2A (Homo sapiens) (UniProt P27037); assay: Inhibition of ACVR2A (unknown origin) assessed as residual activity at 100 nM by KINOMEscan analysis relative to control
Chain of Activin receptor type-2A (Homo sapiens) (P27037 whole entry): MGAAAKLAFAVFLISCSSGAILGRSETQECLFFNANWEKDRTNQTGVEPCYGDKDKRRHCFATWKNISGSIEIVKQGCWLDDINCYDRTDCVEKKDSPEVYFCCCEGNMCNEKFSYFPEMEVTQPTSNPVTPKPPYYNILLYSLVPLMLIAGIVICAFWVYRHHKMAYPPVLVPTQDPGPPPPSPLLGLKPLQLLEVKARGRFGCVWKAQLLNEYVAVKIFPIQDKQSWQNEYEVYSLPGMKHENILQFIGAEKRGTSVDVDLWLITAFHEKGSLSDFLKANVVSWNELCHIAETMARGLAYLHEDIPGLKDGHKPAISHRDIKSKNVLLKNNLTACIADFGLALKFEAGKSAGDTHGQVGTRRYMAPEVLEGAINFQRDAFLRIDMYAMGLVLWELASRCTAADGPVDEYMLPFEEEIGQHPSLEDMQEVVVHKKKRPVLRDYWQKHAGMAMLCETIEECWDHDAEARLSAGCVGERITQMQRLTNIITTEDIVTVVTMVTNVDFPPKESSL

[7] = target: Calcium/calmodulin-dependent protein kinase type 1D (Homo sapiens) (UniProt Q8IU85); assay: Inhibition of CAMK1D (unknown origin) assessed as residual activity at 100 nM by KINOMEscan analysis relative to control
Chain of Calcium/calmodulin-dependent protein kinase type 1D (Homo sapiens) (Q8IU85 whole entry, looked up): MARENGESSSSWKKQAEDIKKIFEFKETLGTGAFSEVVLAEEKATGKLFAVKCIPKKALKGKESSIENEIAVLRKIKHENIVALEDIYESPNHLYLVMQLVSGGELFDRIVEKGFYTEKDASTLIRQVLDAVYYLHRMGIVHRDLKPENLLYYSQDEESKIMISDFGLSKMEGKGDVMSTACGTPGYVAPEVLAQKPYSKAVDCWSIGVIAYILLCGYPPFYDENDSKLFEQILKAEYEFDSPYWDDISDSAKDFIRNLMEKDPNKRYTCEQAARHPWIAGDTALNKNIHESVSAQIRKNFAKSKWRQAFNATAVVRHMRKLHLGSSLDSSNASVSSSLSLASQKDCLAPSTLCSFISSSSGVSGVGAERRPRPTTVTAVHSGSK

[8] = target: Fibroblast growth factor receptor 4 (Homo sapiens) (UniProt P22455); assay: Inhibition of FGFR4 (unknown origin) assessed as residual activity at 100 nM by KINOMEscan analysis relative to control
Chain of Fibroblast growth factor receptor 4 (Homo sapiens) (P22455 22-802 limits assumed): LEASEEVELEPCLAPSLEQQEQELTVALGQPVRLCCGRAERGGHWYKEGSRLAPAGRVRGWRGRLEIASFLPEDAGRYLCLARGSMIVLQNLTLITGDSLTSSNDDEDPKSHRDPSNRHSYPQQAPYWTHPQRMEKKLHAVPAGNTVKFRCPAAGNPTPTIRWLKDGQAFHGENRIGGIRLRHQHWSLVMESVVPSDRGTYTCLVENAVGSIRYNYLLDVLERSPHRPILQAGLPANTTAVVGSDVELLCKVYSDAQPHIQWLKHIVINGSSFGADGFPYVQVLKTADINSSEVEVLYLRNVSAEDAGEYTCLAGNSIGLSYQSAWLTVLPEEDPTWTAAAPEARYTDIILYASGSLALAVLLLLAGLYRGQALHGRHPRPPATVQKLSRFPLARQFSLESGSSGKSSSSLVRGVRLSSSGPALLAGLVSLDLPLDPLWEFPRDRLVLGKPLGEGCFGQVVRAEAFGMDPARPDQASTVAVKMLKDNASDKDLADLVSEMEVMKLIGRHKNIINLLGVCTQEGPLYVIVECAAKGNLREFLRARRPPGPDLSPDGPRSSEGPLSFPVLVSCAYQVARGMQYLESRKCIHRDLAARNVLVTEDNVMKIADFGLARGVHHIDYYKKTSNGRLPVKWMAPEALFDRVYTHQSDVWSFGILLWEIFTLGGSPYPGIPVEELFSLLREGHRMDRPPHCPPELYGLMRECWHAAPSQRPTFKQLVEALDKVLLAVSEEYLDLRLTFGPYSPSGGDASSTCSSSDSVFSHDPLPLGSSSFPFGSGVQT

[9] = target: Protein-tyrosine kinase 2-beta (Homo sapiens) (UniProt Q14289); assay: Inhibition of PYK2 (unknown origin) assessed as residual activity at 100 nM by KINOMEscan analysis relative to control
Chain of Protein-tyrosine kinase 2-beta (Homo sapiens) (Q14289 whole entry, looked up): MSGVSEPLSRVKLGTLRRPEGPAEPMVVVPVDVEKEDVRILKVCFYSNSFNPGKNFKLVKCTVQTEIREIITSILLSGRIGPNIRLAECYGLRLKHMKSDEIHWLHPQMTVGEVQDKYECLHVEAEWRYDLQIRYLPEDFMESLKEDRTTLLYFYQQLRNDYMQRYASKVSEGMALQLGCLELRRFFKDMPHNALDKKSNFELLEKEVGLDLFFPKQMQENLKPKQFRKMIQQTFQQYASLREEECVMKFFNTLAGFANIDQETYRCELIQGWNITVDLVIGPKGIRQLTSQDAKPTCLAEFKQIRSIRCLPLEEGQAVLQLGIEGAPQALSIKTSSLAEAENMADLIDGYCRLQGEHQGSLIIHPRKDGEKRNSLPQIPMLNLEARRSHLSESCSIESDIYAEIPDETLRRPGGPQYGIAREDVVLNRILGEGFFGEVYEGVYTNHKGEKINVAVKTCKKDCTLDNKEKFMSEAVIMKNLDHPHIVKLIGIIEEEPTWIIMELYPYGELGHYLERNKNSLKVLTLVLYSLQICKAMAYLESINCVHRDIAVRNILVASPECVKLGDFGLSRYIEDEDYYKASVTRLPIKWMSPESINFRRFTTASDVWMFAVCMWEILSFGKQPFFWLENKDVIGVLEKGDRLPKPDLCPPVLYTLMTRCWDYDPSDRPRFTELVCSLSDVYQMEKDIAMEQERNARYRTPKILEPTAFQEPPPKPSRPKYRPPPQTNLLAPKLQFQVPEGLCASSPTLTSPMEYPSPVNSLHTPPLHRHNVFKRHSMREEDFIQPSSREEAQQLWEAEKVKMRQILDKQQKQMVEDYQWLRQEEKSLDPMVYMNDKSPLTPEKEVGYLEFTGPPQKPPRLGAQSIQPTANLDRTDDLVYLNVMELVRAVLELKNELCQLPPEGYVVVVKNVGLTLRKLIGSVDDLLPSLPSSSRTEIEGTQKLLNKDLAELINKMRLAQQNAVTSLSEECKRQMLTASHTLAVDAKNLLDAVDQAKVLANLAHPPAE

[10] = target: T3, Cyclin-dependent kinase-like 2 (Homo sapiens) (UniProt Q92772); assay: Inhibition of CDKL2 (unknown origin) assessed as residual activity at 100 nM by KINOMEscan analysis relative to control
T3 sequence (whole entry): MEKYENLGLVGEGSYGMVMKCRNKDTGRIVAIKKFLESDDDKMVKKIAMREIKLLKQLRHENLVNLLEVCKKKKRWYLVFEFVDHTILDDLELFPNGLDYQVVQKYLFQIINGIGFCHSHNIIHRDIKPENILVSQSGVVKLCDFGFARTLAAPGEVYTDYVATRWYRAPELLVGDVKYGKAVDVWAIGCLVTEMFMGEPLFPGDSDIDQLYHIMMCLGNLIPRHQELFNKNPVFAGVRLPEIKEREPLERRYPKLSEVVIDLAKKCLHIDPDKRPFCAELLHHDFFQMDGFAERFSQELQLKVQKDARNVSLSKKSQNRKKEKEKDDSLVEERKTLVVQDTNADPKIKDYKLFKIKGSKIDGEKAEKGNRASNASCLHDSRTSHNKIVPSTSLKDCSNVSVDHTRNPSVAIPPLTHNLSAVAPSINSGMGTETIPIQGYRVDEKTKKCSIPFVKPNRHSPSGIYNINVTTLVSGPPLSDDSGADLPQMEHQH

[11] = target: Phosphatidylinositol 3-kinase catalytic subunit type 3 (Homo sapiens) (UniProt Q8NEB9); assay: Inhibition of VPS34 (unknown origin) assessed as residual activity at 1000 nM by KINOMEscan analysis relative to control

Chain of Activin receptor type-1-like (Homo sapiens) (P37023 whole entry): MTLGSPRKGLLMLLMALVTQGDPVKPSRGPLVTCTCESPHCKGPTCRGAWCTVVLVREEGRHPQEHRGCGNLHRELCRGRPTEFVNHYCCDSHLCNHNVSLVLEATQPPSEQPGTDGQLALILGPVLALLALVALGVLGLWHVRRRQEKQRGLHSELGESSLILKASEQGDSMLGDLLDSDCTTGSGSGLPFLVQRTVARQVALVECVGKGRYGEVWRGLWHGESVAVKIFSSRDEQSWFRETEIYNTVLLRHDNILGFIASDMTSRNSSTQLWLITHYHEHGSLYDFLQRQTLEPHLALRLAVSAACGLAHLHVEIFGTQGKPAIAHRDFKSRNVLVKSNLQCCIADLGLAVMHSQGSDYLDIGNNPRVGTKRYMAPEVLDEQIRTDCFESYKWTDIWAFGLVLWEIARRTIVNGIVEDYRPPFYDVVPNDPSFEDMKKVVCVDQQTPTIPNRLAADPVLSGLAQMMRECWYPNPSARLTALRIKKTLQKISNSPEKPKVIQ

SMILES	Activity [1] [%]	Activity [2] [%]	Activity [3] [%]	Activity [4] [%]	Activity [5] [%]	Activity [6] [%]	Activity [7] [%]	Activity [8] [%]	Activity [9] [%]	Activity [10] [%]	Activity [11] [%]
COc1cc2ncnc(N[C@H](C)c3cccc4ccccc34)c2cc1OC	82	72	96	84	83	94	88	76	100	88	
COc1cc2nc(C)nc(N[C@H](C)c3cccc(-c4cn[nH]c4)c3)c2cc1OC											100
